Measurements from ChEMBL document CHEMBL4177606, “Synthesis of novel 1,2,5-oxadiazoles and evaluation of action against Acinetobacter baumannii” (2017).

System: Acinetobacter baumannii
Assay: Antibacterial activity against Acinetobacter baumannii ATCC 17978 after 24 to 48 hrs in presence of iron chelator 2,2'-dipyridyl by CLSI method
Type: functional

Row | Compound | MIC [µM]
1 | Cc1nonc1NC(=O)CSc1nc2ccccc2[nH]1 | 2000
2 | Cc1nonc1NC(=O)CSc1ccc2ccccc2c1 | > 4000
3 | Cc1nonc1NC(=O)CSc1ncccn1 | 4000
4 | CCCc1nonc1NC(=O)CCc1ccccc1 | 1000
5 | Cc1ccnc(SCC(=O)Nc2nonc2C)n1 | 4000
6 | Cc1nonc1NC(=O)CSc1nc2ccccc2s1 | > 4000
7 | O=C(COc1ccccc1)Nc1nonc1-c1ccccc1 | > 4000
8 | Cc1nonc1NC(=O)CN(CC(=O)Nc1nonc1C)c1ccccc1 | > 4000
9 | O=C(/C=C/c1ccccc1)Nc1nonc1-c1ccccc1 | > 4000
10 | Cc1nonc1NC(=O)COc1ccc(Cl)cc1 | 1000
11 | Cc1nonc1NC(=O)COc1cccc2ccccc12 | > 4000
12 | Cc1nonc1NC(=O)/C=C/c1ccc(O)c(O)c1 | > 4000
13 | Cc1nonc1NC(=O)CSc1ccccc1 | 1000
14 | CCCc1nonc1NC(=O)/C=C/c1ccccc1 | > 4000
15 | O=C(CSc1ccccc1)Nc1nonc1-c1ccccc1 | > 4000
16 | Cc1nonc1NC(=O)COc1cccc(Cl)c1Cl | > 4000
17 | Cc1nonc1NC(=O)c1ccc2ccccc2c1 | 4000
18 | CC(=O)Oc1ccc(/C=C/C(=O)Nc2nonc2C)cc1OC(C)=O | 4000
19 | COc1ccc(CCC(=O)Nc2nonc2C)cc1 | 2000
20 | Cc1nonc1NC(=O)/C=C/c1ccccc1 | 1000
21 | Cc1nonc1NC(=O)c1cccc2ccccc12 | 1000

Second part, the molecule after the results:

Row | MIC [µM] | Compound
22 | 2000 | Cc1nonc1NC(=O)CSc1ccccn1
23 | > 4000 | O=C(CCc1ccccc1)Nc1nonc1-c1ccccc1
24 | 2000 | Cc1nonc1NC(=O)COc1ccccc1
25 | 500 | Cc1nonc1NC(=O)/C=C/c1ccccc1O
26 | 1000 | Cc1nonc1NC(=O)CCc1ccccc1
27 | 2000 | CC(=O)Oc1ccccc1/C=C/C(=O)Nc1nonc1C
28 | 1000 | Cc1nonc1NC(=O)COc1ccc(Cl)c(Cl)c1
29 | > 4000 | Cc1nonc1NC(=O)COc1ccccc1Cl
30 | > 4000 | O=C(COc1ccccc1Cl)Nc1nonc1-c1ccccc1
31 | 2000 | Cc1nonc1NC(=O)CSC1=NCCS1
